Experimental data from US11911394B2, “Compound and method for the prevention of transmission of influenza virus” (Hoffmann-La Roche Inc., priority 2019, dated 2024).

Key:
[1] = tested on: influenza A virus A/England/195/2009; experiment: Example 1 ferret transmission study, real-time RT-PCR of nasal wash; assay type: in vivo; details: positive/total; for Sentinel DC ferrets positive for influenza as detected by the qRT-PCR: direct contact sentinels; for Sentinel RD ferrets positive for influenza as detected by the qRT-PCR: respiratory droplet sentinels
Protocol: In this experiment baloxavir was administered once to ferrets as s.c. suspension with 1 mg/kg at 4 different locations in the back. Oseltamivir phosphate (5 mg/kg) was orally administered twice daily for 5 days.
24 hours post infection, the 4 infected ferrets were nasal washed. Nasal washes were assayed immediately by plaquing on fresh MDCK cells for infectious virus and carrying out RT-PCR for viral RNA load. Each donor ferret was then treated with either baloxavir, oseltamivir phosphate or vehicle only. Baloxavir was administered once subcutaneously in 4 locations on the back with 1 mg/l mL/kg per injection (total 4 mg/4 mL/kg). After dosing of baloxavir blood samples (minimum 200 μl) were collected from the donor animals at 48 h and 144 h, respectively, for pharmacokinetics (PK) analysis.
A 5 mg/kg dose of oseltamivir phosphate was orally administered twice daily for 5 days, which is considered to be equivalent to the standard human adult dose of 75 mg for treatment (J Antimicrob Chemother 2014; 69: 2458-2469). After drug administration on day 1 one sentinel animal was introduced into same cage as each infected donor (DC animal) and one sentinel animal was introduced into adjacent cage (RD animal). Sentinel animals were not treated with any drug.
All ferrets were nasal washed on day 2 and every subsequent day until experiment end starting with RD animals, then DC animals, and finishing with donors. Plaque assay was performed immediately on nasal wash. Virus RNA was also monitored by RT-PCR. Daily observation of clinical signs including temperature, weight loss and respiratory signs was performed. In addition, virus exhaled in breath from the 4 donor animals was monitored by placing them in a chamber for 10 minutes and sampling air using sentinel MDCK cells.
140 μl of ferret nasal wash was used to extract RNA using the Qiagen Viral RNA mini kit (Cat No./ID: 52904), according to manufacturer's instructions.
Real-time PCR was performed using 7500 Real Time PCR system (ABI) in 20 μl reactions using AgPath-ID™ One-Step RT-PCR Reagents 10 μl RT-PCR buffer (2×) (Thermo Fisher, Cat. No. 4387391), 4 μl of RNA, 0.8 μl forward (5′[…] 3′, SEQ ID NO:1) and reverse primers (5′ […]3′, SEQ ID NO:2) and 0.4 μl probe (5′ FAM-[…]-BHQ1 3′, SEQ ID NO:3). Reverse transcription was carried out at 45° C. for 10 min. PCR amplification conditions consisted of 95° C. for 15 s and 60° C. for 1 min after an initial denaturation step at 95° C. for 10 min. In total 40 cycles were performed. For each sample, the Ct value for the target M gene was determined. M gene is an influenza gene encoding the 2 Matrix proteins M1 and M2. The M gene is detected in PCR and can be used to quantify the influenza virus. Based on the standard curves, absolute copy numbers were calculated to establish if the ferret was positive for influenza A.

[2] = Example 5 pharmacokinetic analysis in ferret, plasma concentration by LC-MS/MS; assay type: in vivo
Protocol: Outbred female and ferrets 28 months old and weighing between 650-802 g were obtained from Japan SLC, Inc. Identification was conducted by labeling sequential number in front of each cage. Animals were monitored at least once daily for their clinical observations, and had ad libitum access to pellet feed (LabDiet High Density Ferret Diet, Lab Supply, USA) and water. Ferrets at endpoint were euthanized by exsanguination under anesthesia by inhalation with isoflurane (Pfizer). Ferret studies were performed in Shionogi Pharmaceutical Research Center, Shionogi & Co., Ltd. (Osaka, Japan), according to the animal study protocol which was approved by the Institutional Animal Care and Use Committee in Shionogi.
The active form baloxavir acid (S-033447, hereafter BXA) was provided by Test Substance Control Personnel, Shionogi & Co., Ltd., Japan. The vehicle for BXA delivery was methyl cellulose (Fuji-Film Wako, Japan) in 0.5 w/v % aqueous solution prepared with sterile water (hereafter MC solution). BXA in suspension with MC solution (1 mg/mL) was prepared using an agate mortar and pestle, and was delivered to reversibly anaesthetised animals in a single treatment consisting of 4 subcutaneous injections at 4 locations on the dorsal region (total dose 4 mg/kg per animal). […]
The plasma concentration of BXA was determined by LC-MS/MS, consisting of LC-20A system (Shimadzu Corporation, Japan) and API 5000 (AB SCIEX, USA). […]
Precursor/product transitions (m/z) of 484/247 and 490/247 were monitored for BXA and internal standard, BXA-racemate-d4^18O, respectively. […]
The plasma concentrations of BXA for each individual ferret were calculated by Analyst software (AB SCIEX, USA). The mean value and standard deviation were also calculated using individual data by Microsoft Excel (Microsoft Co., USA).

| Compound | Sentinel DC ferrets positive for influenza as detected by the qRT-PCR [1] | Donor ferrets positive for influenza as detected by the qRT-PCR [1] | Sentinel RD ferrets positive for influenza as detected by the qRT-PCR [1] | concentration at 168 h ([2]; plasma, subcutaneous, single s.c. suspension 4 mg/kg, 168 hours postdose, read-out: mean plasma concentration at last sampling point) | time at which mean plasma concentration reached the maximum ([2]; single s.c. suspension 4 mg/kg) | mean plasma concentration, maximum ([2]; single s.c. suspension 4 mg/kg (4 locations, 1 mg/kg per location), 3 hours postdose) |
| --- | --- | --- | --- | --- | --- | --- |
| O=C1c2c(O)c(=O)ccn2N([C@@H]2c3ccccc3SCc3c2ccc(F)c3F)[C@@H]2COCCN12 [baloxavir, baloxavir acid] | 4/4 | 4/4 | 1/4 | 9.08 ng/mL | 3 hours postdose | 26.1 ng/mL |
| CCOC(=O)C1=C[C@@H](OC(CC)CC)[C@H](NC(C)=O)[C@@H](N)C1 [oseltamivir, oseltamivir phosphate, reference compound] | 4/4 | 4/4 | 4/4 | – | – | – |
